Data as given in patent US8859596B2, “Compounds as cannabinoid receptor ligands” (priority 2008, dated 2014).
Where two headings read alike, the source gives them in different places.

How the values were obtained:
rat CB1 = rat CB1 (Rattus norvegicus (Rat), UniProt P20272); test: CB1 cyclase functional assay (HitHunter cAMP); format: cell-based; settings: HEK cells, forskolin 37 μM; read-out: rCB1 cyclase (EC50)
Description: (§1) The cyclase functional assays were performed using the HitHunter™ cAMP assay kit from DiscoveRx (Fremont, Calif.) according to vendor's protocol. Briefly, HEK cells expressing CB2 or CB1 receptors (rat or human) were detached using cell dissociation buffer (Invitrogen, Carlsbad, Calif.), dispersed and placed in suspension at 10,000 cells per well in 96 well plates prior to the assay. Cell suspensions were incubated at 37° C. for 20 min with variable concentrations of test ligands and or 10 μM CP 55,940-positive control in the presence of a fixed concentration of forskolin (18 μM for rat CB2 and 37 μM for rat CB1) in Dulbescco's phosphate-buffered saline (Invitrogen, Carlsbad, Calif.) supplemented with bovine serum albumin (0.01% final concentration). The reactions were terminated by the addition of lysis buffer and the luminescence was detected following the procedure according to the manufacturer's instructions. EC50 values were calculated using sigmoidal dose-response curve fitting from Prism (GraphPad).

human CB2 receptors = human CB2 receptors (Homo sapiens (Human), UniProt P34972); test: human CB2 radioligand binding assay ([3H]CP 55,940 competition)
Description: (§2) The CB1 and CB2 radioligand binding assays described herein are utilized to ascertain the affinity of compounds of the present application for binding to CB2 relative to CB1 receptors.
HEK293 cells stably expressing human CB2 receptors were grown until a confluent monolayer was formed. Briefly, the cells were harvested and homogenized in TE buffer (50 mM Tris-HCl, 1 mM MgCl2, and 1 mM EDTA) using a polytron for 2×10 second bursts in the presence of protease inhibitors, followed by centrifugation at 45,000×g for 20 minutes. The final membrane pellet was re-homogenized in storage buffer (50 mM Tris-HCl, 1 mM MgCl2, and 1 mM EDTA and 10% sucrose) and frozen at −78° C. until used. Saturation binding reactions were initiated by the addition of membrane preparation (protein concentration of 5 μg/well for human CB2) into wells of a deep well plate containing [^3H]CP 55,940 (120 Ci/mmol, a nonselective CB agonist commercially available from Tocris) in assay buffer (50 mM Tris, 2.5 mM EDTA, 5 mM MgCl2, and 0.5 mg/mL fatty acid free BSA, pH 7.4). After 90 min incubation at 30° C., binding reaction was terminated by the addition of 300 μL/well of cold assay buffer followed by rapid vacuum filtration through a UniFilter-96 GF/C filter plates (pre-soaked in 1 mg/mL BSA for 2 hours). The bound activity was counted in a TopCount using Microscint-20. Saturation experiments were conducted with twelve concentrations of [^3H]CP 55,940 ranging from 0.01 to 8 nM. Competition experiments were conducted with 0.5 nM [^3H]CP 55,940 and five concentrations (0.01 nM to 10 μM) of displacing ligands. The addition of 10 μM unlabeled CP 55,940 (Tocris, Ellisville, Mo.) was used to assess nonspecific binding.

rat CB2 [1] = biological target: T1, rat CB2 (Rattus norvegicus (Rat), UniProt Q9QZN9); test: CB2 cyclase functional assay (HitHunter cAMP); format: cell-based; settings: HEK cells, forskolin 18 μM
Description: as §1

rat CB2 [2] = biological target: T1, rat CB2; test: rat CB2 radioligand binding assay ([3H]CP 55,940 competition)
Description: as §2
HEK293 cells stably expressing rat CB2 receptors were grown until a confluent monolayer was formed. Briefly, the cells were harvested and homogenized in TE buffer (50 mM Tris-HCl, 1 mM MgCl2, and 1 mM EDTA) using a polytron for 2×10 second bursts in the presence of protease inhibitors, followed by centrifugation at 45,000×g for 20 minutes. The final membrane pellet was re-homogenized in storage buffer (50 mM Tris-HCl, 1 mM MgCl2, and 1 mM EDTA and 10% sucrose) and frozen at −78° C. until used. Saturation binding reactions were initiated by the addition of membrane preparation (protein concentration of 20 μg/well for rat CB2) into wells of a deep well plate containing [^3H]CP 55,940 (120 Ci/mmol, a nonselective CB agonist commercially available from Tocris) in assay buffer (50 mM Tris, 2.5 mM EDTA, 5 mM MgCl2, and 0.5 mg/mL fatty acid free BSA, pH 7.4). After 45 min incubation at 30° C., binding reaction was terminated by the addition of 300 μl/well of cold assay buffer followed by rapid vacuum filtration through a UniFilter-96 GF/C filter plates (pre-soaked in 1 mg/mL BSA for 2 hours). The bound activity was counted in a TopCount using Microscint-20. Saturation experiments were conducted with twelve concentrations of [^3H]CP 55,940 ranging from 0.01 to 8 nM. Competition experiments were conducted with 0.5 nM [^3H]CP 55,940 and five concentrations of displacing ligands selected from the range of 0.01 nM to […] addition of 10 μM unlabeled CP 55,940 (Tocris, Ellisville, Mo.) was used to assess nonspecific binding.

[3] = HEK293 membranes, 0.5 nM [3H]CP 55,940, read-out: human CB2 (Ki)
[4] = HEK293 membranes, 0.5 nM [3H]CP 55,940, read-out: rat CB2 (Ki)

T1 sequence (Q9QZN9 whole entry): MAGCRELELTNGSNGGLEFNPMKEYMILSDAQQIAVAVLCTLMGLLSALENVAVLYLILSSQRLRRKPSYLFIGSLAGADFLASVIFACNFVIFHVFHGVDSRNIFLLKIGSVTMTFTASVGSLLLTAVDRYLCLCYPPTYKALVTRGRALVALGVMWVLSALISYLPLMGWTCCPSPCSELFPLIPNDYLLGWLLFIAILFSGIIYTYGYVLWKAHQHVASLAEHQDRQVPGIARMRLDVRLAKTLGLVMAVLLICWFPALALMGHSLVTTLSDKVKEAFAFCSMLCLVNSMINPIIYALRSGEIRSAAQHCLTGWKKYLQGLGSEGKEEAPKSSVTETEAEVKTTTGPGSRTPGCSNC
human CB2 receptors, sequence (P34972 whole entry): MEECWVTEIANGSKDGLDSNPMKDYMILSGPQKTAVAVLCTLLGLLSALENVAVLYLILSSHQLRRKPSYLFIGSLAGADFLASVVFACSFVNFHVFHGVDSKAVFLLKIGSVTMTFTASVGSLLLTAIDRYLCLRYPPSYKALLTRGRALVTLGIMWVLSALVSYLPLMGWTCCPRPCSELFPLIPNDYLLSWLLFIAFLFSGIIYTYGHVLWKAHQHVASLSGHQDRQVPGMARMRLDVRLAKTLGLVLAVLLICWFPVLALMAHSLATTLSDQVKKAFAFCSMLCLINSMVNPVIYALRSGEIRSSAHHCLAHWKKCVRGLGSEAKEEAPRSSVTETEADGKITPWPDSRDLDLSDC

| Structure (SMILES) | EC50 (rat CB1) [nM] | Ki (human CB2 receptors; [3]) [nM] | EC50 (rat CB2 [1]) [nM] | Ki (rat CB2 [2]; [4]) [nM] | Ki (human CB2 receptors) [nM] | Ki (rat CB2 [2]) [nM] |
| --- | --- | --- | --- | --- | --- | --- |
| CCCCn1nc(C(C)(C)C)s/c1=N\C(=O)c1cc(C(F)(F)F)ccc1ONC(C)(C)C [Example 34, 2-[(tert-butylamino)oxy]-N-[(2Z)-3-butyl-5-tert-butyl-1,3,4-thiadiazol-2(3H)-ylidene]-5-(trifluoromethyl)benzamide] | > 27000 | 11 | 0.43 | 1.9 |  |  |
| CCCCn1nc(C(C)(C)C)s/c1=N\C(=O)c1cc(C(F)(F)F)ccc1ONC(=O)OC(C)(C)C [Example 141, tert-butyl 2-({[(2Z)-3-butyl-5-tert-butyl-1,3,4-thiadiazol-2(3H)-ylidene]amino}carbonyl)-4-(trifluoromethyl)phenoxycarbamate] | 273 |  | 1.12 |  | 0.32 | 2.3 |
| Cn1c(C(C)(C)C)c/c(=N\C(=O)c2cc(C(F)(F)F)ccc2ONC(C)(C)C)n1C[C@H]1CCCO1 [Example 142, 2-[(tert-butylamino)oxy]-N-{(3E)-5-tert-butyl-1-methyl-2-[(2R)-tetrahydrofuran-2-ylmethyl]-1,2-dihydro-3H-pyrazol-3-ylidene}-5-(trifluoromethyl)benzamide] | > 27000 |  |  |  | 24 | 9.4 |
| CCCCn1nc(C(C)(C)C)s/c1=N\C(=O)c1cc(C(F)(F)F)ccc1ONC(C)C [Example 144, N-[(2Z)-3-butyl-5-tert-butyl-1,3,4-thiadiazol-2(3H)-ylidene]-2-[(isopropylamino)oxy]-5-(trifluoromethyl)benzamide] | 415 | 0.6 | 0.22 | 0.8 |  |  |
| CC(C)(C)NOc1ccc(C(F)(F)F)cc1C(=O)/N=c1\sc(C(C)(C)C)nn1CCCC#N [Example 151, 2-[(tert-butylamino)oxy]-N-[(2Z)-5-tert-butyl-3-(3-cyanopropyl)-1,3,4-thiadiazol-2(3H)-ylidene]-5-(trifluoromethyl)benzamide] | 938 | 4.3 | 0.13 | 1.2 |  |  |
| CC(C)(C)NOc1ccc(C(F)(F)F)cc1C(=O)/N=c1\sc(C(C)(C)C)nn1C[C@H]1CCCO1 [Example 153, 2-[(tert-butylamino)oxy]-N-[(2Z)-5-tert-butyl-3-[(2R)-tetrahydrofuran-2-ylmethyl]-1,3,4-thiadiazol-2(3H)-ylidene]-5-(trifluoromethyl)benzamide] | > 27000 | 10 | 0.24 | 3.2 |  |  |
| CCCCn1nc(C(C)(C)C)s/c1=N\C(=O)c1cc(C(F)(F)F)ccc1ONC(C)=O [Example 154, 2-[(acetylamino)oxy]-N-[(2Z)-3-butyl-5-tert-butyl-1,3,4-thiadiazol-2(3H)-ylidene]-5-(trifluoromethyl)benzamide] | 58 | 1 | 1.5 | 1 |  |  |
| CC(C)(C)NOc1ccc(C(F)(F)F)cc1C(=O)/N=c1\sc(C(C)(C)C)nn1CCCC(F)(F)F [Example 164, 2-[(tert-butylamino)oxy]-N-[(2Z)-5-tert-butyl-3-(4,4,4-trifluorobutyl)-1,3,4-thiadiazol-2(3H)-ylidene]-5-(trifluoromethyl)benzamide] | 1020 | 1.8 | 0.28 | 0.3 |  |  |
| CCCCn1nc(C(C)(C)C)s/c1=N\C(=O)c1cc(C(F)(F)F)ccc1NNC(=O)c1cccnc1 [Example 197, N-[(2Z)-3-butyl-5-tert-butyl-1,3,4-thiadiazol-2(3H)-ylidene]-2-[2-(pyridin-3-ylcarbonyl)hydrazino]-5-(trifluoromethyl)benzamide] |  | 1.1 |  | 0.7 |  |  |
| CCCCn1/c(=N/C(=O)c2cc(C(F)(F)F)ccc2NNC(=O)C(C)(C)C)cc(C(C)(C)C)n1C [Example 198, N-[(3E)-2-butyl-5-tert-butyl-1-methyl-1,2-dihydro-3H-pyrazol-3-ylidene]-2-[2-(2,2-dimethylpropanoyl)hydrazino]-5-(trifluoromethyl)benzamide] |  | 0.4 |  | 1.7 |  |  |
| CCCCn1/c(=N/C(=O)c2cc(C(F)(F)F)ccc2NNC(=O)c2cccnc2)cc(C(C)(C)C)n1C [Example 199, N-[(3E)-2-butyl-5-tert-butyl-1-methyl-1,2-dihydro-3H-pyrazol-3-ylidene]-2-[2-(pyridin-3-ylcarbonyl)hydrazino]-5-(trifluoromethyl)benzamide] |  | 2.5 |  | 2.2 |  |  |
| CCCCn1/c(=N/C(=O)c2cc(C(F)(F)F)ccc2NNC(=O)c2ccncc2)cc(C(C)(C)C)n1C [Example 200, N-[(3E)-2-butyl-5-tert-butyl-1-methyl-1,2-dihydro-3H-pyrazol-3-ylidene]-2-(2-isonicotinoylhydrazino)-5-(trifluoromethyl)benzamide] |  | 0.7 |  | 1.3 |  |  |
| CCCCn1nc(C(C)(C)C)s/c1=N\C(=O)c1cc(C(F)(F)F)ccc1NNC(N)=O [Example 201, 2-[2-({[(2Z)-3-butyl-5-tert-butyl-1,3,4-thiadiazol-2(3H)-ylidene]amino}carbonyl)-4-(trifluoromethyl)phenyl]hydrazinecarboxamide] |  | 47 |  | 5.2 |  |  |
| CCCCn1nc(C(C)(C)C)s/c1=N\C(=O)c1cc(C(F)(F)F)ccc1NNCc1ccccc1 [Example 202, 2-(2-benzylhydrazino)-N-[(2Z)-3-butyl-5-tert-butyl-1,3,4-thiadiazol-2(3H)-ylidene]-5-(trifluoromethyl)benzamide] |  | 43 |  | 36 |  |  |
| CCCCn1nc(C(C)(C)C)s/c1=N\C(=O)c1cc(C(F)(F)F)ccc1ON=C(N)c1ccncc1 [Example 203, 2-({[amino(pyridin-4-yl)methylene]amino}oxy)-N-[(2Z)-3-butyl-5-tert-butyl-1,3,4-thiadiazol-2(3H)-ylidene]-5-(trifluoromethyl)benzamide] |  | 68 |  | 33 |  |  |
| CCCCn1nc(C(C)(C)C)s/c1=N\C(=O)c1cc(C(F)(F)F)ccc1ON=C(N)c1cccnc1 [Example 204, 2-({[amino(pyridin-3-yl)methylene]amino}oxy)-N-[(2Z)-3-butyl-5-tert-butyl-1,3,4-thiadiazol-2(3H)-ylidene]-5-(trifluoromethyl)benzamide] |  | 87 |  | 13 |  |  |
| CCCCn1nc(C(C)(C)C)s/c1=N\C(=O)c1cc(C(F)(F)F)ccc1N(/N=C/c1cccc(C)n1)C(=O)OC(C)(C)C [Example 205, tert-butyl (2E)-1-[2-({[(2Z)-3-butyl-5-tert-butyl-1,3,4-thiadiazol-2(3H)-ylidene]amino}carbonyl)-4-(trifluoromethyl)phenyl]-2-[(6-methylpyridin-2-yl)methylene]hydrazinecarboxylate] |  |  |  |  | 44 | 43 |
